System: Lox-IMVI melanoma cell line
Test: Lox-IMVI anti-proliferative assay (growth inhibition, Cell Titer-Glo)
Type: cell-based, human
Conditions: Homo sapiens; Lox-IMVI melanoma cell line, anti-proliferative assay; read-out: Activity (IC50 activity level)
Outline: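 Cells grown in RPMI + 10% FBS were exposed to compound at 0.5 nM to 10 μM (10-point, 3-fold dilution, duplicate, 0.2% DMSO final) for 72 h at 37 °C, 5% CO2. Viability was read by ATP luminescence at t0 and 72 h. IC50 came from a four-parameter logistic fit normalized to DMSO control.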

Row | Compound | IC50 [µM]
1 | CS(=O)(=O)C1CC(Nc2ncc3nc(Nc4c(Cl)cc(C#N)cc4Cl)n([C@H]4CC[C@@H](C(N)=O)CC4)c3n2)C1 (stereo partly shown) [Example 730, (1s,4s)-4-(8-(2,6-dichloro-4-cyanophenylamino)-2-(3-(methylsulfonyl)cyclobutylamino)-9H-purin-9-yl)cyclohexanecarboxamide] | > 1
2 | CS(=O)(=O)C1CC(Nc2ncc3nc(Nc4c(F)cc(Cl)cc4Cl)n([C@H]4CC[C@@H](C(N)=O)CC4)c3n2)C1 (stereo partly shown) [Example 731, (1s,4s)-4-(8-(2,4-dichloro-6-fluorophenylamino)-2-(3-(methylsulfonyl)cyclobutylamino)-9H-purin-9-yl)cyclohexanecarboxamide] | > 1
3 | CS(=O)(=O)C1CC(Nc2ncc3nc(Nc4c(Cl)cc(C(F)(F)F)cc4Cl)n([C@H]4CC[C@@H](C(N)=O)CC4)c3n2)C1 (stereo partly shown) [Example 735, (1s,4s)-4-(8-(2,6-dichloro-4-(trifluoromethyl)phenylamino)-2-(3-(methylsulfonyl)cyclobutylamino)-9H-purin-9-yl)cyclohexanecarboxamide] | > 1
4 | CS(=O)(=O)C1CC(Nc2ncc3nc(Nc4c(F)cc(Cl)cc4F)n([C@H]4CC[C@@H](C(N)=O)CC4)c3n2)C1 (stereo partly shown) [Example 736, (1s,4s)-4-(8-(4-chloro-2,6-difluorophenylamino)-2-(3-(methylsulfonyl)cyclobutylamino)-9H-purin-9-yl)cyclohexanecarboxamide] | > 1
5 | NC(=O)[C@H]1CC[C@@H](n2c(Nc3c(F)cc(F)cc3Cl)nc3cnc(N[C@@H]4CCCN(c5ccccc5)C4)nc32)CC1 [Example 742, (1S,4s)-4-(8-(2-chloro-4,6-difluorophenylamino)-2-((R)-1-phenylpiperidin-3-ylamino)-9H-purin-9-yl)cyclohexanecarboxamide] | > 1
6 | N#Cc1cc(Cl)c(Nc2nc3cnc(N[C@@H]4CCCN(c5ccccc5)C4)nc3n2[C@H]2CC[C@@H](C(N)=O)CC2)c(Cl)c1 [Example 744, (1S,4s)-4-(8-(2,6-dichloro-4-cyanophenylamino)-2-((R)-1-phenylpiperidin-3-ylamino)-9H-purin-9-yl)cyclohexanecarboxamide] | > 1
7 | N#Cc1cc(F)c(Nc2nc3cnc(N[C@@H]4CCCN(c5ccccc5)C4)nc3n2[C@H]2CC[C@@H](C(N)=O)CC2)c(F)c1 [Example 745, (1S,4s)-4-(8-(4-cyano-2,6-difluorophenylamino)-2-((R)-1-phenylpiperidin-3-ylamino)-9H-purin-9-yl)cyclohexanecarboxamide] | > 1
8 | NC(=O)[C@H]1CC[C@@H](n2c(Nc3c(F)cc(F)cc3F)nc3cnc(N[C@@H]4CCCN(c5ccccc5)C4)nc32)CC1 [Example 746, (1S,4s)-4-(2-((R)-1-phenylpiperidin-3-ylamino)-8-(2,4,6-trifluorophenylamino)-9H-purin-9-yl)cyclohexanecarboxamide] | > 1
9 | NC(=O)[C@H]1CC[C@@H](n2c(Nc3c(F)cc(Cl)cc3F)nc3cnc(N[C@@H]4CCCN(c5ccccc5)C4)nc32)CC1 [Example 747, (1S,4s)-4-(8-(4-chloro-2,6-difluorophenylamino)-2-((R)-1-phenylpiperidin-3-ylamino)-9H-purin-9-yl)cyclohexanecarboxamide] | > 1
10 | NC(=O)[C@H]1CC[C@@H](n2c(Nc3c(F)cc(Cl)cc3Cl)nc3cnc(N[C@@H]4CCCN(c5ccccc5)C4)nc32)CC1 [Example 748, (1S,4s)-4-(8-(2,4-dichloro-6-fluorophenylamino)-2-((R)-1-phenylpiperidin-3-ylamino)-9H-purin-9-yl)cyclohexanecarboxamide] | > 1
11 | N#Cc1cc(F)c(Nc2nc3cnc(N[C@@H]4CCCN(c5ccccc5)C4)nc3n2[C@H]2CC[C@@H](C(N)=O)CC2)c(Cl)c1 [Example 750, (1S,4s)-4-(8-(2-chloro-4-cyano-6-fluorophenylamino)-2-((R)-1-phenylpiperidin-3-ylamino)-9H-purin-9-yl)cyclohexanecarboxamide] | > 1
12 | NC(=O)[C@H]1CC[C@@H](n2c(Nc3c(F)cc(F)cc3Cl)nc3cnc(N[C@@H]4CCCN(Cc5ccccc5)C4)nc32)CC1 [Example 751, (1S,4s)-4-(2-((R)-1-benzylpiperidin-3-ylamino)-8-(2-chloro-4,6-difluorophenylamino)-9H-purin-9-yl)cyclohexanecarboxamide] | > 1
13 | N#Cc1cc(Cl)c(Nc2nc3cnc(N[C@@H]4CCCN(Cc5ccccc5)C4)nc3n2[C@H]2CC[C@@H](C(N)=O)CC2)c(Cl)c1 [Example 753, (1S,4s)-4-(2-((R)-1-benzylpiperidin-3-ylamino)-8-(2,6-dichloro-4-cyanophenylamino)-9H-purin-9-yl)cyclohexanecarboxamide] | > 1
14 | NC(=O)[C@H]1CC[C@@H](n2c(Nc3c(Cl)cc(C(F)(F)F)cc3Cl)nc3cnc(N[C@@H]4CCCN(Cc5ccccc5)C4)nc32)CC1 [Example 754, (1S,4s)-4-(2-((R)-1-benzylpiperidin-3-ylamino)-8-(2,6-dichloro-4-(trifluoromethyl)phenylamino)-9H-purin-9-yl)cyclohexanecarboxamide] | > 1
15 | N#Cc1cc(F)c(Nc2nc3cnc(N[C@@H]4CCCN(Cc5ccccc5)C4)nc3n2[C@H]2CC[C@@H](C(N)=O)CC2)c(F)c1 [Example 755, (1S,4s)-4-(2-((R)-1-benzylpiperidin-3-ylamino)-8-(4-cyano-2,6-difluorophenylamino)-9H-purin-9-yl)cyclohexanecarboxamide] | > 1
16 | NC(=O)[C@H]1CC[C@@H](n2c(Nc3c(F)cc(F)cc3F)nc3cnc(N[C@@H]4CCCN(Cc5ccccc5)C4)nc32)CC1 [Example 756, (1S,4s)-4-(2-((R)-1-benzylpiperidin-3-ylamino)-8-(2,4,6-trifluorophenylamino)-9H-purin-9-yl)cyclohexanecarboxamide] | > 1

Second part, the molecule after the results:

Row | IC50 [µM] | Compound
17 | > 1 | CS(=O)(=O)C1CC(Nc2ncc3nc(Nc4c(Cl)cc(Cl)cc4Cl)n([C@H]4CC[C@@H](C(N)=O)CC4)c3n2)C1 (stereo partly shown) [Example 729, (1s,4s)-4-(2-(3-(methylsulfonyl)cyclobutylamino)-8-(2,4,6-trichlorophenylamino)-9H-purin-9-yl)cyclohexanecarboxamide]
18 | > 1 | CCN1CCC[C@@H](Nc2ncc3nc(Nc4c(Cl)cc(Cl)cc4Cl)n([C@H]4CC[C@@H](C(N)=O)CC4)c3n2)C1 [Example 732, (1S,4s)-4-(2-((R)-1-ethylpiperidin-3-ylamino)-8-(2,4,6-trichlorophenylamino)-9H-purin-9-yl)cyclohexanecarboxamide]
19 | > 1 | CCN1CCC[C@@H](Nc2ncc3nc(Nc4c(Cl)cc(C#N)cc4Cl)n([C@H]4CC[C@@H](C(N)=O)CC4)c3n2)C1 [Example 733, (1S,4s)-4-(8-(2,6-dichloro-4-cyanophenylamino)-2-((R)-1-ethylpiperidin-3-ylamino)-9H-purin-9-yl)cyclohexanecarboxamide]
20 | > 1 | CCN1CCC[C@@H](Nc2ncc3nc(Nc4c(F)cc(Cl)cc4Cl)n([C@H]4CC[C@@H](C(N)=O)CC4)c3n2)C1 [Example 734, (1S,4s)-4-(8-(2,4-dichloro-6-fluorophenylamino)-2-((R)-1-ethylpiperidin-3-ylamino)-9H-purin-9-yl)cyclohexanecarboxamide]
21 | > 1 | CCN1CCC[C@@H](Nc2ncc3nc(Nc4c(Cl)cc(C(F)(F)F)cc4Cl)n([C@H]4CC[C@@H](C(N)=O)CC4)c3n2)C1 [Example 737, (1S,4s)-4-(8-(2,6-dichloro-4-(trifluoromethyl)phenylamino)-2-((R)-1-ethylpiperidin-3-ylamino)-9H-purin-9-yl)cyclohexanecarboxamide]
22 | > 1 | CC(C)N1CCC[C@@H](Nc2ncc3nc(Nc4c(Cl)cc(Cl)cc4Cl)n([C@H]4CC[C@@H](C(N)=O)CC4)c3n2)C1 [Example 738, (1S,4s)-4-(2-((R)-1-isopropylpiperidin-3-ylamino)-8-(2,4,6-trichlorophenylamino)-9H-purin-9-yl)cyclohexanecarboxamide]
23 | > 1 | CC(C)N1CCC[C@@H](Nc2ncc3nc(Nc4c(Cl)cc(C#N)cc4Cl)n([C@H]4CC[C@@H](C(N)=O)CC4)c3n2)C1 [Example 739, (1S,4s)-4-(8-(2,6-dichloro-4-cyanophenylamino)-2-((R)-1-isopropylpiperidin-3-ylamino)-9H-purin-9-yl)cyclohexanecarboxamide]
24 | > 1 | CC(C)N1CCC[C@@H](Nc2ncc3nc(Nc4c(F)cc(Cl)cc4F)n([C@H]4CC[C@@H](C(N)=O)CC4)c3n2)C1 [Example 740, (1S,4s)-4-(8-(4-chloro-2,6-difluorophenylamino)-2-((R)-1-isopropylpiperidin-3-ylamino)-9H-purin-9-yl)cyclohexanecarboxamide]
25 | > 1 | CC(C)N1CCC[C@@H](Nc2ncc3nc(Nc4c(F)cc(Cl)cc4Cl)n([C@H]4CC[C@@H](C(N)=O)CC4)c3n2)C1 [Example 741, (1S,4s)-4-(8-(2,4-dichloro-6-fluorophenylamino)-2-((R)-1-isopropylpiperidin-3-ylamino)-9H-purin-9-yl)cyclohexanecarboxamide]
26 | > 1 | NC(=O)[C@H]1CC[C@@H](n2c(Nc3c(Cl)cc(Cl)cc3Cl)nc3cnc(N[C@@H]4CCCN(c5ccccc5)C4)nc32)CC1 [Example 743, (1S,4s)-4-(2-((R)-1-phenylpiperidin-3-ylamino)-8-(2,4,6-trichlorophenylamino)-9H-purin-9-yl)cyclohexanecarboxamide]
27 | > 1 | NC(=O)[C@H]1CC[C@@H](n2c(Nc3c(Cl)cc(F)cc3Cl)nc3cnc(N[C@@H]4CCCN(c5ccccc5)C4)nc32)CC1 [Example 749, (1S,4s)-4-(8-(2,6-dichloro-4-fluorophenylamino)-2-((R)-1-phenylpiperidin-3-ylamino)-9H-purin-9-yl)cyclohexanecarboxamide]
28 | > 1 | NC(=O)[C@H]1CC[C@@H](n2c(Nc3c(Cl)cc(Cl)cc3Cl)nc3cnc(N[C@@H]4CCCN(Cc5ccccc5)C4)nc32)CC1 [Example 752, (1S,4s)-4-(2-((R)-1-benzylpiperidin-3-ylamino)-8-(2,4,6-trichlorophenylamino)-9H-purin-9-yl)cyclohexanecarboxamide]
